Columns and labels:
[1] = molecular target: T1, human androgen receptor (hAR) (Homo sapiens, UniProt P10275); experiment: androgen receptor-dependent MMTV-luc reporter gene assay (luciferase assay) in transfected CV1 cells; assay type: cell-based; conditions: for inactivation of androgen receptor-mediated transactivation: 1 μM concentration; for inhibition of androgen receptor-mediated transactivation: 10 μM concentration, FIG. 7; for antiandrogenic effect of atraric acid derivatives and structurally similar compounds: FIGS. 6 and 7, concentration not given (FIG. 6: 10^−6 M)
T1 construct: expressed in transfected cells; host or cells: CV1 monkey kidney cells, which lack endogenous androgen receptor
T1 sequence (P10275 1-920): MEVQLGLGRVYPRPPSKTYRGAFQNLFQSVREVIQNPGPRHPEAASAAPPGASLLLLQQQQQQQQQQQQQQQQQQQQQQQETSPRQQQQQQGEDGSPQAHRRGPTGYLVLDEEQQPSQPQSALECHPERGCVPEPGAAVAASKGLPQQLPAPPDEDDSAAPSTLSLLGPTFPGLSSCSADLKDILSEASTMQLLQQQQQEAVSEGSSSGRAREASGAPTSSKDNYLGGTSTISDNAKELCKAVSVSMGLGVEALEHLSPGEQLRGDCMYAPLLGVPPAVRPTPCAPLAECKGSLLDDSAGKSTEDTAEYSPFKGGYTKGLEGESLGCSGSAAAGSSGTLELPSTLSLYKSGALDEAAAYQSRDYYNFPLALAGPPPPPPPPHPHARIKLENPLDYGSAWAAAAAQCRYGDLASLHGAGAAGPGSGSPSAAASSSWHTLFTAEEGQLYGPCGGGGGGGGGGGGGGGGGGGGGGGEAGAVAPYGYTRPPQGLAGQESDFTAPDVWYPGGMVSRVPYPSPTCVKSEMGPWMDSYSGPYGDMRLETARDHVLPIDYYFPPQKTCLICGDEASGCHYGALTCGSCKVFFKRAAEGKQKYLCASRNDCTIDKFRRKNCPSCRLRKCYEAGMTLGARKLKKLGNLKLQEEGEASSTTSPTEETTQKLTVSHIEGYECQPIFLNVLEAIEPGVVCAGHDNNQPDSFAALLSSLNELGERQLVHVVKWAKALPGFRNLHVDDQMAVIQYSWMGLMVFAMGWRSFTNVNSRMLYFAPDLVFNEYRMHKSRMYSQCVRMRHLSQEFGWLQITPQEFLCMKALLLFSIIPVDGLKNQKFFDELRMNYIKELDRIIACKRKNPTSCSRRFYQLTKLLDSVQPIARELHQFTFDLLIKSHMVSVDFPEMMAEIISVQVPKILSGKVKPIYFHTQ
Text: The potentially antiandrogenic efficacy of the extracts obtained was examined with the androgen receptor-dependent MMTV-luc reporter gene assay, in the following designated as luciferase assay.
In that assay, the enzyme luciferase serves as a reporter gene. Luciferase is an oxidoreductase from the North American firefly Photinus pyralis, which […] the substrate luciferin in the presence of aerial oxygen, ATP and Mg^2+ ions, to oxyluciferin. The energy emitted in the process is emitted as light.
The reporter gene luciferase is located on the plasmid pMMTV-luc (MMTV=Mouse mammary tumour virus), on which is also located the androgen-responsive element (ARE). The plasmid pMMTV-luc is transfected, together with the androgen receptor expression vector, into fibroblasts of the monkey kidney. If an androgen is added thereto, this androgen will bind, in a complex with the androgen receptor, to the androgen-responsive element. This process then initiates the transcription of the following gene, namely that of the luciferase reporter gene. The amount of the expressed luciferase is directly proportional to the amount of light released when adding luciferin, and the amount of light can be quantified by measuring the emission at λ=562 nm. If apart from the androgen there is also an antiandrogenic substance or an antiandrogenic extract, the transactivation of the luciferase reporter gene by the androgen-responsive element is inhibited and later, when the substrate is added, a correspondingly smaller amount of light energy is released.
The extracts were then examined at two concentrations (300 μg/ml and 600 μg/ml) for their antiandrogenic bioactivity using the luciferase assay.
Monkey kidney cells, line CV1, lacking endogenous androgen receptor, were cultured in Dulbecco's modified Eagle's medium (DMEM), supplemented with 10% (v/v) fetal calf serum, penicillin (100 IU/ml) and streptomycin (100 IU/ml), at 37° C. and 5% CO2.
For the transfection experiments, the cells were seeded onto 6-well cell culture plates (Nunc, Roskilde, Denmark) with a density of 1.2×10^5 cells per well, and grown in DMEM medium supplemented with 10% (v/v) dextran-coated activated charcoal stripped serum. Six hours after seeding, the cells were transfected by using the Ca3(PO4)2 method. The human androgen receptor (hAR) expression vector (0.2 μg) was cotransfected with 1 μg of the reporter plasmid MMTV-luc and 0.2 μg of the cytomegalovirus (CMV)-driven β-galactosidase expression virus, as internal control for transfection efficiency. After 14 hours, the medium was replaced either without (white bars in FIGS. 1 to 3) or with the addition of methyltrienolone (R1881, 3×10^−10 M final concentration; black bars in FIGS. 1 to 3) together with the indicated extracts (FIG. 1), fractions of the methylene chloride extract (FIG. 2) or individual isolated compounds (FIG. 3). After an additional 48 hours, cells were harvested and assayed for luciferase and β-galactosidase activity.
Luciferase activity was determined by injecting luciferin and measuring light emission at 562 nm and expressed as relative light units (RLU) by using the values […] β-galactosidase activity for normalisation of the luciferase activity. All transfection assays shown were performed in duplicate and were repeated at least twice.
For determining antiandrogenic activity in the various extracts from the bark of P. africana, the extracts were used at a concentration of 300 μg/ml.
For determining the antiandrogenic activity in the fractions of the selective methylene chloride extracts, 2 μl of the respective fraction was used, corresponding to a final concentration of 30 μg/ml. Fractions 6 to F10 were additionally tested with 4 μl, corresponding to 60 μg/ml final concentration.

[2] = tested on: pathologically altered androgen receptor; conditions: background, prior work; cited from earlier work
human ERβ = molecular target: T2, human ERβ (Homo sapiens, UniProt Q92731); experiment: p2ERE-TATA-luc reporter gene assay in CV1 cells transfected with ERβ; assay type: cell-based; conditions: FIG. 8
T2 construct: expressed in transfected cells; host or cells: CV1 cells
T2 sequence (Q92731 whole entry): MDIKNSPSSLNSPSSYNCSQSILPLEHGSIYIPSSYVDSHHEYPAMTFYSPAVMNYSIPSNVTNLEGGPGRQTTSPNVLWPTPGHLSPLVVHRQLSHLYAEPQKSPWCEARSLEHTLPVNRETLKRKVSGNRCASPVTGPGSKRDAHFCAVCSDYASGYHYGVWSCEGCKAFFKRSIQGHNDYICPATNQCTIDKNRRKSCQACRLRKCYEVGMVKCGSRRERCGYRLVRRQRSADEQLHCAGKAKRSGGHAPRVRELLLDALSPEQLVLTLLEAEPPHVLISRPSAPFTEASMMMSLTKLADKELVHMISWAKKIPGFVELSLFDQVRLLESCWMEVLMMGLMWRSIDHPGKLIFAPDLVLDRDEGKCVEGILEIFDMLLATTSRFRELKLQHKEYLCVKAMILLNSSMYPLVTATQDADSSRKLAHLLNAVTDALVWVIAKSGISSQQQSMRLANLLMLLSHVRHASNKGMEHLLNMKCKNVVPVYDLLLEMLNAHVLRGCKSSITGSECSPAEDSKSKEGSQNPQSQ
Protocol: (§1) After seven days, the cells were seeded in 6-well plates (Nunc, Roskilde, Denmark) at a density of 1.5×10^5 cells per well. After 24 hours, the cells were transfected according to the calcium phosphate method with 2 μg of the reporter gene-encoding expression plasmid, 0.2 μg of the ERα-encoding or ERβ-encoding expression plasmid and, for reasons of normalisation, 0.2 μg of the cytomegalovirus-derived β-galactosidase. […] After 48 hours, the cells were harvested and assayed for luciferase and β-galactosidase activity. All transfection assays were performed in duplicate and were repeated at least twice.

[3] = tested on: human prostate carcinoma cells (cell line LNCaP); experiment: LNCaP cell growth assay; assay type: cell-based; conditions: FIG. 4; for growth of LNCaP cells: atraric acid 10 μM, OH—F 0.1 μM
Protocol: The growth of prostate cells and prostate cancer cells is originally dependent on androgens.
Human prostate carcinoma cells (cell line LNCaP) were cultured in RPMI-1640 medium that was supplemented with 10% (v/v) fetal calf serum, penicillin (100 IU/ml) and streptomycin (100 IU/ml), 2 mM glutamine and 1 mM sodium pyruvate.
For the cell growth assays, LNCaP cells were seeded onto a 24-well cell culture plate at a density of 5×10^3 cells per well and cultured in RPMI-1640 medium containing 5% fetal calf serum. […] Every second day the medium was replaced with fresh medium together with freshly added compounds. The cells were trypsinized and counted using a counting cell chamber on the indicated days.

human ERα = molecular target: T3, human ERα (Homo sapiens, UniProt P03372); experiment: p2ERE-TATA-luc reporter gene assay in CV1 cells transfected with ERα; assay type: cell-based; conditions: FIG. 9
T3 construct: expressed in transfected cells; host or cells: CV1 cells
T3 sequence (P03372 whole entry): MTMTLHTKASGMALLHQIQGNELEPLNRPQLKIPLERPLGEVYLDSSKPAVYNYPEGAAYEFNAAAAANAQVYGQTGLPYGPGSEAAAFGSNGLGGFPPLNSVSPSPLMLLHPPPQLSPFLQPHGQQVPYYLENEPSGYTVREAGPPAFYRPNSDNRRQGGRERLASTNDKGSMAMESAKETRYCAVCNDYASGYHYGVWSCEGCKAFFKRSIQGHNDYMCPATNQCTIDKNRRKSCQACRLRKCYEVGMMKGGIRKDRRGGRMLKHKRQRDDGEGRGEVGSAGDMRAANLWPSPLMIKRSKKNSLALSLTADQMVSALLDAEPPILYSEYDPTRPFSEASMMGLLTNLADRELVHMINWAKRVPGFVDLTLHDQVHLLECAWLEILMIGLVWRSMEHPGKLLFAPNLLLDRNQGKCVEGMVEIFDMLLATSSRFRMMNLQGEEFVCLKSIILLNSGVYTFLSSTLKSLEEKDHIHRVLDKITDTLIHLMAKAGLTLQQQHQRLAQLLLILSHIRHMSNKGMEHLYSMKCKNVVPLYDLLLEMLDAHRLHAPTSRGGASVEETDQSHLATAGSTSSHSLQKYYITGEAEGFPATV
Protocol: as §1

[4] = no estradiol present, 10 μM or 100 μM

SMILES: Cc1cc(C(=O)OC(C)C)c(O)c(C)c1O [A6, isopropyl-2,4-dihydroxy-3,5-dimethylbenzoate]
- inactivation of androgen receptor-mediated transactivation [1]: still able to inactivate
- inhibition of androgen receptor-mediated transactivation [1]: nearly completely inhibiting

SMILES: Cc1cc(O)c(C)c(O)c1C(=O)OCCNS(=O)(=O)c1ccccc1 [A4, 2-[(phenylsulfonyl)amino]ethyl-2,4-dihydroxy-3,6-dimethylbenzoate]
- antiandrogenic effect of atraric acid derivatives and structurally similar compounds [1]: no antiandrogenic effect

SMILES: COC(=O)c1ccc(O)c(C)c1O [R4, methyl-2,4-dihydroxy-3-methylbenzoate]
- inactivation of androgen receptor-mediated transactivation [1]: still able to inactivate
- inhibition of androgen receptor-mediated transactivation [1]: nearly completely inhibiting

SMILES: C[C@]12CC[C@H]3[C@@H](CCC4=CC(=O)CC[C@@]43C)[C@@H]1CC[C@@H]2O [testosterone]
- inclusions in cells expressing a pathologically altered androgen receptor [2]: characteristic inclusions in the cytoplasm

SMILES: COC(=O)c1c(C)c(Br)c(O)c(Br)c1O [R1, methyl-3,5-dibromo-2,4-dihydroxy-6-methylbenzoate]
- antiandrogenic effect of atraric acid derivatives and structurally similar compounds [1]: loss of anti androgenic activity

SMILES: Cc1cc(O)c(C)c(O)c1C(=O)O [R6, 2,4-dihydroxy-3,6-dimethylbenzoic acid]
- antiandrogenic effect of atraric acid derivatives and structurally similar compounds [1]: abrogates the antiandrogenic activity

SMILES: COC(=O)c1c(C)cc(O)c(C)c1O [atraric acid, methyl-2,4-dihydroxy-3,6-dimethylbenzoate]
- estrogen-responsive expression of the reporter gene (ERβ agonism) (human ERβ; [4]): activated in a dose-dependent manner
- hormone-mediated transactivation of ERβ (human ERβ; with estradiol): not affected
- growth of LNCaP cells versus untreated cells ([3]; 10 μM, 8th day of treatment): clearly slower
- growth of LNCaP cells [3]: reduced growth
- estrogen-responsive expression of the reporter gene (ERα agonism) (human ERα; [4]): activated in a dose-dependent manner
- hormone-mediated transactivation of ERα (human ERα; with estradiol): not affected

SMILES: CC(=O)[C@@]1(O)CC[C@H]2[C@@H]3C=C(Cl)C4=CC(=O)[C@@H]5C[C@@H]5[C@]4(C)[C@H]3CC[C@@]21C [cyproterone]
- inclusions in cells expressing a pathologically altered androgen receptor [2]: only a small number of inclusions

SMILES: COC(=O)c1c(O)c(C)cc(C)c1O [R5, methyl-2,6-dihydroxy-3,5-dimethylbenzoate]
- antiandrogenic effect of atraric acid derivatives and structurally similar compounds [1]: loss of antiandrogenic activity

SMILES: CC(C)=CCC/C(C)=C/COC(=O)c1cc(C)c(O)c(C)c1O [A5, (2E)-3,7-dimethylocta-2,6-dien-1-yl-2,4-dihydroxy-3,5-dimethylbenzoate]
- antiandrogenic effect of atraric acid derivatives and structurally similar compounds [1]: did not lead to an antiandrogenically active molecule

SMILES: CC(C)(O)C(=O)Nc1ccc([N+](=O)[O-])c(C(F)(F)F)c1 [OH—F, hydroxyflutamide, reference compound]
- growth of LNCaP cells [3]: did not lead to any reduction in growth
